The record followed here is US20200131473A1, “METHOD OF GENERATING 2 CELL-LIKE STEM CELLS” (IFOM FONDAZIONE ISTITUTO FIRC DI ONCOLOGIA MOLECOLARE, priority 2017, published 2020).

Molecules are shown by their SMILES. Entries after “also recorded” stand apart in the source; their conditions may differ.

One data set relates to morula-stage embryos. In words: Mouse chimaera assay. In kind it is in vivo. The note with it: APH-treated mCherry ESCs injected into morula, 24 hrs post injection; 7 out of 35. The method, then:
Briefly, morula stage embryos were bought from Charles River laboratories. They were thawed few hours prior to injection and about five to eight ESC were injected into the perivitelline space of high quality morula-stage embryos using laser-assisted technique and glass micro-capillary tubes. Finally, embryos were cultured for 24 hours at 37 C, 5% CO2 to allow the blastocysts development prior to the microscopic analysis.
For ETAA-1 inducible cells, 8-cell morulae were obtained from superovulated C57BL/6 prepubescent females from Janvier Labs. Ten ESCs were injected into each morula after piercing their zona pellucida with beveled microinjection needle. Embryos were kept in M2 medium during the injection and afterwards in KSOM medium at 37° C. under 5% CO2. Morulae were either cultured for 48 hrs to study ESC contribution at late blastocyst stage (E4.5), or transferred to pseudopregnant females and later dissected at E7.5. Chimerism and ESC contribution to the various embryonic layers were assessed by emission of mCherry fluorescence signal.
For the APH-treated ESCs, frozen morula-stage embryos were purchased from Charles River and Janvier laboratories. Embryos were thawed 2 hrs prior to injection and 4 to 8 ESCs were transferred into the perivitelline space by laser-assisted microinjection method. […]

In a further data set the test system is pZscan4-Emerald ESCs. In words: FACS analysis of Zscan4-Emerald ESCs (Emerald-GFP positive cells). The class given is cell-based, mouse. The settings on record: for elevated expression of 2C-like specific genes (Zscan4, MERVL) upon APH and HU treatment: inhibitor added under replication stress, flow cytometry and immunoblot. The method, then:
All treatments including APH, HU, UV, ATRi, ATMi and Chk1i were added in to fresh ESC medium and the cells were kept in 37° C. and 3% 02 tension for overnight (16-17 hrs) unless mentioned in each particular result section. APH was used at various concentrations ranging from 0.3 uM to 6 uM that is mentioned in each experiment in order to induce mild to acute replication stress response. Similarly, HU was used at 0.1 mM-3 mM. ATMi (KU-55933) and ATRi (VE 822) were used at the concentration of 10 uM and 1 uM respectively. Moreover, Chk1i (UCN-01) at the concentration of 100 nM was used. UV radiation was performed at the dosage ranging from 2 to 10 J/m2. For induction of ETAA1-AAD expression, Dox was used at the concentration of 1 μg/mL for 48 hrs.
ESCs were fixed and permeabilized using Cytoperm/Cytofix kit (BD Biosciences), and subsequently stained for one hour at room temperature with Alexa Fluor® 647 anti-H2AX-Phosphorylated (Ser139) antibody (Biolegend) or P-CHK1-PE conjugated antibody (cell signaling 12268). Cells were washed and acquired on a FACS Calibur instrument or Attune NxT (Thermo Fisher Scientific). For Emerald-GFP acquisition, cells were trypsinized, collected and subsequently acquired without fixation. Cell cycle profiles were acquired after incubation with DAPI (4′,6-diamidino-2-phenylindole) overnight. For Caspase3 FACS analysis after fixation and permeabilization, Cleaved Caspase3 antibody were used for one hr at RT followed by washes and one hr incubation in donkey anti rabbit secondary antibody. […]

The subject of the next data set is C57BL/6N morulae. As to the kind of experiment: Viability of APH-treated embryos. The note with it: APH 1.5 μM in KSOM for 4 hrs. In kind it is cell-based, mouse.
The subject of data set [1] is ESC lines E14, R1 and MC1. As to the kind of experiment: High-throughput transcriptional profiling (RNA sequencing) of ESC lines E14, R1 and MC1. In kind it is cell-based, mouse. The procedure: RNA samples were quantified using Qubit 2.0 Fluorometer (Life Technologies, Carlsbad, Calif., USA) and RNA integrity was checked with RNA Screen Tape on Agilent 2200 TapeStation (Agilent Technologies, Palo Alto, Calif., USA). […] RNA sequencing library preparation was prepared using Ribo-Zero rRNA Removal Kit and TruSeq Stranded Total RNA library Prep kit following manufacturer's protocol (Illumina, Cat # RS-122-2101). Briefly, rRNA was depleted with Ribo-Zero rRNA Removal Kit. rRNA depleted RNAs were fragmented for 8 minutes at 94° C. First strand and second strand cDNA were subsequently synthesized. The second strand of cDNA was marked by incorporating dUTP during the synthesis. cDNA fragments were adenylated at 3′ends, and indexed adapter was ligated to cDNA fragments. Limited cycle PCR was used for library enrichment. The incorporated dUTP in second strand cDNA quenched the amplification of second strand, which helped to preserve the strand specificity. Sequencing libraries were validated using DNA Analysis Screen Tape on the Agilent 2200 TapeStation (Agilent Technologies, Palo Alto, Calif., USA), and quantified by using Qubit 2.0 Fluorometer (Invitrogen, Carlsbad, Calif.) as well as by quantitative PCR (Applied Biosystems, Carlsbad, Calif., USA).
The sequencing libraries were multiplexed and clustered on 1 lane of flowcell. […] On average ˜29 million reads were generated for a sample and average insert size ranged between 204-231 for the samples.
Transcript and gene level quantification was done with Kallisto (version 0.43.0)^16. […] Additionally, all reads were mapped with the STAR spliced aligner (version 2.5.2b)^17 to the GRCm38 (mm10) genome after trimming the reads to 100 bp with Trimmomatic (version 0.36)^18. Repeat expression was quantified by counting fragments overlapping with the repeat annotation from the Choi et al. 2017 paper, with using FeatureCounts from the subread package (version 1.5.2)^19. […]
Read counts for each sample estimated by Kallisto were imported into the R statistical environment (version 3.2.2) using tximport (version 1.1.2)^20. […]

For `C[C@@]1(CO)[C@H](O)CC[C@@]2(C)[C@H]1CC[C@H]1C[C@@H]3C[C@@]12CC[C@]3(O)CO` [APH, aphidicolin], the “chimeric embryos with contribution to the trophectoderm layer of the blastocysts” value with morula-stage embryos worked out at 20%. Besides, the “number of Emerald-GFP positive (Em+) ESCs” value in the data set with pZscan4-Emerald ESCs (RS inducing agents, dose-dependent, qPCR and FACS) is “significant increase”. Further, in the data set on C57BL/6N morulae, the “viability of the embryos” value is “no effect on the viability of the embryos”. Besides, in data set [1] (APH treatment, FDR<0.05), the downregulated genes was 640 genes and the “upregulated genes with more than two-fold change” value was found to be 3074 genes.

Regarding `CNCc1ccc(-c2cc(-c3nc(-c4ccc(S(=O)(=O)C(C)C)cc4)cnc3N)on2)cc1` [VE 822], the “elevated expression of 2C-like specific genes (Zscan4, MERVL) upon APH and HU treatment” value in the data set on pZscan4-Emerald ESCs was “robustly revert”; in the data set on pZscan4-Emerald ESCs (listed as ATR inhibitor) it was “robustly suppress”. Moreover, the “number of Zscan4-Emerald positive cells” value in the data set with pZscan4-Emerald ESCs (normal culture condition, ATRi 1 uM, ATMi 10 uM) is on record as “markedly reduce; also recorded: marked reduction”. In data set [1] (APH plus ATRi), the “genes shared between APH and DUX-induced condition rescued” value was found to be 71%.
